Test results from US11339130B1 (Blade Therapeutics, Inc., priority 2016, dated 2022).

Columns and labels:
Assay type in all cases: biochemical
[1] = molecular target: T1, Human Calpain 2/NS1 (Homo sapiens, UniProt P17655); test: Calpain inhibition continuous fluorescence (FRET) assay, Human Calpain 2/NS1; settings: Column B; read-out: Human Calpain 2/NS1 IC50
T1 sequence (P17655 1-700): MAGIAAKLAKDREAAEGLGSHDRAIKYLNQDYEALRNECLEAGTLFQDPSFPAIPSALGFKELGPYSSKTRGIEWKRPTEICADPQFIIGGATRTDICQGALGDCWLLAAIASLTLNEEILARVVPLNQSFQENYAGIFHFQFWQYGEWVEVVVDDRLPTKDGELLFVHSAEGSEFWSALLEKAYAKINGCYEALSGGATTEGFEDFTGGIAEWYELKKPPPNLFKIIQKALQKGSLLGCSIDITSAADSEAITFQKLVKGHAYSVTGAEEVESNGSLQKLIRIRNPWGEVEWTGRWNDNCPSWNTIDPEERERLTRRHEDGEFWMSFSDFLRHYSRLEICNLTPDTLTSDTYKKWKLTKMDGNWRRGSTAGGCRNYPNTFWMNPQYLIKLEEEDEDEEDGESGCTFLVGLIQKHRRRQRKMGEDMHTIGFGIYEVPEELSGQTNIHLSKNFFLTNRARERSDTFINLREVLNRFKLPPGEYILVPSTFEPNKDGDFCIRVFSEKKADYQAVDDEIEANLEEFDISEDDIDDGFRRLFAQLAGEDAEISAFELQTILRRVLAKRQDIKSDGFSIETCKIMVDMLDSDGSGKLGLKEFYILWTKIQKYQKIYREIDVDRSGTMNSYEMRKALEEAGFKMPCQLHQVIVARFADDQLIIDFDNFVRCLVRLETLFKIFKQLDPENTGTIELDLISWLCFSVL
T1 sequence (P04632 1-268 partner): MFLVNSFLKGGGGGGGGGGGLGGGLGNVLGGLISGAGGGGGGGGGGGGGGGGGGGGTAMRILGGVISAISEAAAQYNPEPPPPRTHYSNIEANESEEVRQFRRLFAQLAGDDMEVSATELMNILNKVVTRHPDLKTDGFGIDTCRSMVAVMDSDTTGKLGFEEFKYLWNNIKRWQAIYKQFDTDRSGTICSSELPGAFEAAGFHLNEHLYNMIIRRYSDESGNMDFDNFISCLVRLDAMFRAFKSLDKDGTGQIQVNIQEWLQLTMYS
Method: (§1) Calpain 1, 2, and 9 activity and inhibition thereof was assessed by means of a continuous fluorescence assay. The SensoLyte 520 Calpain substrate (Anaspec Inc) was optimized for detecting calpain activity. This substrate contains an internally quenched 5-FAM/QXL™ 520 FRET pair. Calpains 1, 2, and 9 cleave the FRET substrate into two separate fragments resulting in an increase of 5-FAM fluorescence that is proportional to calpain activity
(§2) Assays were typically setup in black 384-well plates using automated liquid handling as follows. Calpain assay base buffer typically contains 50 mM Tris, pH 7.5, 100 mM NaCl and 1 mM DTT. Inhibitors were serially diluted in DMSO and used to setup 2× mixtures with calpains in the aforementioned buffer. After incubation at ambient temperature (25C), the reaction was initiated by adding a 2× mix of the fluorescent peptide substrate and CaCl2) (required for in-situ calpain activation) in the same buffer. Reaction progress curve data were typically collected for 10 min using excitation/emission wavelengths of 490 nm/520 nm on SpectraMax i3× or the FLIPR-Tetra plate readers (Molecular Devices Inc). Reaction rates were calculated from progress curve slopes typically over 1-5 min. Dose response curves (rate vs. log inhibitor concentration) were typically fit to a 4-parameter logistic function to extract IC50 values.

[2] = molecular target: T2, Human Calpain 9/NS1 (Homo sapiens, UniProt O14815); test: Calpain inhibition continuous fluorescence (FRET) assay, Human Calpain 9/NS1; settings: Column C; read-out: Human Calpain 9/NS1 IC50
T2 sequence (O14815 1-690): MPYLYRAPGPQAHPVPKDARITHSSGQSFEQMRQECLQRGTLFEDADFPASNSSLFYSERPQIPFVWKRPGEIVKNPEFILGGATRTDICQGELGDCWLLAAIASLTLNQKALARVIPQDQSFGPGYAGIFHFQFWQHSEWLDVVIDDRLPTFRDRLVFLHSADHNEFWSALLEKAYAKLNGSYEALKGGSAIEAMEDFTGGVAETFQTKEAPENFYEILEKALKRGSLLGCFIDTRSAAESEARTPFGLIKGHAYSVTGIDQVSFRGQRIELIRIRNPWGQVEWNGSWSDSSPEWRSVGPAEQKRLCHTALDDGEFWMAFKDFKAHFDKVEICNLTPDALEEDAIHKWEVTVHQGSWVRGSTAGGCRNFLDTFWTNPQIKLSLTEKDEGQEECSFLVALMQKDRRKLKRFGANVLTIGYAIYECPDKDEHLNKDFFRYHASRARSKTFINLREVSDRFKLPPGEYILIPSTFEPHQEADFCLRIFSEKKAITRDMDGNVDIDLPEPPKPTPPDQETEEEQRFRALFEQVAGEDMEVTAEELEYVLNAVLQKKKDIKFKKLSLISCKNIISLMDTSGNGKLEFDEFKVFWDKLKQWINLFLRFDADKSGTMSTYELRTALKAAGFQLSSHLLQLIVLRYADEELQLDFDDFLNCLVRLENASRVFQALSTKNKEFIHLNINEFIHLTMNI
T2 sequence (P04632 1-268 partner): T1 sequence (P04632 1-268 partner)
Method: as §1, §2

[3] = molecular target: T3, Human Calpain 1/NS1 (Homo sapiens, UniProt P07384); test: Calpain inhibition continuous fluorescence (FRET) assay, Human Calpain 1/NS1; settings: Column A; read-out: Human Calpain 1/NS1 IC50
T3 sequence (P07384 1-714): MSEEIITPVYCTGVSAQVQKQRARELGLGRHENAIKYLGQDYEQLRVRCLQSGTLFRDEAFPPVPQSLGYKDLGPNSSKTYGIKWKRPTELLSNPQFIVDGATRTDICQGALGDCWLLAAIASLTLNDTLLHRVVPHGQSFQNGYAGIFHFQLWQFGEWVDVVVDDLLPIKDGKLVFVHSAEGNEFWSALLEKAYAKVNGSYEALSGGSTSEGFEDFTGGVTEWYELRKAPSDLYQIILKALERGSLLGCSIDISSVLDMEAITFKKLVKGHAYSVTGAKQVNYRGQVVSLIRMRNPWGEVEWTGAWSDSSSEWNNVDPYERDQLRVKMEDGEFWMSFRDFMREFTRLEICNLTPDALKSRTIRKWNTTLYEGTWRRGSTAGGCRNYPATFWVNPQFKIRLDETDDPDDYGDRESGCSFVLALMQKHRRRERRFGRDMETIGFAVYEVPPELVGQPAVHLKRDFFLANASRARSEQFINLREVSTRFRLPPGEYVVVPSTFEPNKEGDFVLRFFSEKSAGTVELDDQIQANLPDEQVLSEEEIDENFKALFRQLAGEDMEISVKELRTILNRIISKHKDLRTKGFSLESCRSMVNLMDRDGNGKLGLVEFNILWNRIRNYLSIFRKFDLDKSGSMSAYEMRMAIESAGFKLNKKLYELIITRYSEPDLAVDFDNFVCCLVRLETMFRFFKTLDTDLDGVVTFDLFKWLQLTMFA
T3 sequence (P04632 1-268 partner): T1 sequence (P04632 1-268 partner)
Method: as §1, §2

IC50 [1] [µM]	IC50 [2] [µM]	IC50 [3] [µM]	Structure (SMILES)
< 3	< 3	< 3	NC(=O)C(=O)[C@H](Cc1ccccc1)NC(=O)c1cncn1-c1ccn(-c2ccccc2)n1 [Compound 68, (S)—N-(4-amino-3,4-dioxo-1-phenylbutan-2-yl)-1-(1-phenyl-1H-pyrazol-3-yl)-1H-imidazole-5-carboxamide]
3 to 10	> 10	3 to 10	O=C(NC1CC1)C(=O)[C@H](Cc1ccccc1)NC(=O)c1cncn1-c1nc2ccccc2[nH]1 [Compound 71, (S)-1-(1H-benzo[d]imidazol-2-yl)-N-(4-(cyclopropylamino)-3,4-dioxo-1-phenylbutan-2-yl)-1H-imidazole-5-carboxamide]
< 3	> 10	< 3	CC[C@@H](C)[C@H](NC(=O)c1c(C)noc1-c1ccccc1)C(=O)C(N)=O [Compound 73, N-((3S,4R)-1-amino-4-methyl-1,2-dioxohexan-3-yl)-3-methyl-5-phenylisoxazole-4-carboxamide]
< 3	3 to 10	< 3	O=C[C@H](Cc1ccccc1)NC(=O)c1cncn1-c1ncc(-c2ccccc2)cn1 [Compound 75]
< 3	3 to 10	< 3	O=C(NC1CC1)C(=O)[C@H](Cc1ccccc1)NC(=O)c1cncn1-c1ncc(-c2ccccc2)cn1 [Compound 76, (S)—N-(4-(cyclopropylamino)-3,4-dioxo-1-phenylbutan-2-yl)-1-(5-phenylpyrimidin-2-yl)-1H-imidazole-5-carboxamide]
< 3	< 3	< 3	Cc1nc(C(=O)N[C@@H](Cc2ccccc2)C(=O)C(N)=O)c(-c2ccccc2)[nH]1 [Compound 79, (S)—N-(4-amino-3,4-dioxo-1-phenylbutan-2-yl)-2-methyl-5-phenyl-1H-imidazole-4-carboxamide]
< 3	< 3	< 3	O=C(NC1CC1)C(=O)[C@H](Cc1ccccc1)NC(=O)c1scnc1-n1ncc2ccccc21 [Compound 86, (S)—N-(4-(cyclopropylamino)-3,4-dioxo-1-phenylbutan-2-yl)-4-(1H-indazol-1-yl)thiazole-5-carboxamide]
< 3	< 3	> 10	O=C(NC1CC1)C(=O)[C@H](Cc1ccccc1)NC(=O)c1scnc1-n1cc(-c2ccccc2)cn1 [Compound 87, (S)—N-(4-(cyclopropylamino)-3,4-dioxo-1-phenylbutan-2-yl)-4-(4-phenyl-1H-pyrazol-1-yl)thiazole-5-carboxamide]

More lines, now with the values behind:

Structure (SMILES)	IC50 [1] [µM]	IC50 [2] [µM]	IC50 [3] [µM]
Cc1cc(C(=O)N[C@@H](Cc2ccccc2)C(=O)C(=O)NC2CC2)n(-c2ncccc2C)n1 [Compound 67, (S)—N-(4-(cyclopropylamino)-3,4-dioxo-1-phenylbutan-2-yl)-3-methyl-1-(3-methylpyridin-2-yl)-1H-pyrazole-5-carboxamide]	> 10	> 10	> 10
NC(=O)C(=O)[C@H](Cc1ccccc1)NC(=O)c1cncn1-c1n[nH]c2ccccc12 [Compound 69, (S)—N-(4-amino-3,4-dioxo-1-phenylbutan-2-yl)-1-(1H-indazol-3-yl)-1H-imidazole-5-carboxamide]	< 3	< 3	< 3
NC(=O)C(=O)[C@H](Cc1ccccc1)NC(=O)c1cncn1-c1nc2ccccc2[nH]1 [Compound 70, (S)—N-(4-amino-3,4-dioxo-1-phenylbutan-2-yl)-1-(1H-benzo[d]imidazol-2-yl)-1H-imidazole-5-carboxamide]	< 3	< 3	< 3
NC(=O)C(=O)[C@H](Cc1ccccc1)NC(=O)c1cncn1-c1ncc(-c2ccccc2)cn1 [Compound 74, (S)—N-(4-amino-3,4-dioxo-1-phenylbutan-2-yl)-1-(5-phenylpyrimidin-2-yl)-1H-imidazole-5-carboxamide]	< 3	< 3	< 3
O=C(NC1CC1)C(=O)[C@H](Cc1ccccc1)NC(=O)c1cncn1-c1cc(-c2ncco2)ccn1 [Compound 77, (S)—N-(4-(cyclopropylamino)-3,4-dioxo-1-phenylbutan-2-yl)-1-(4-(oxazol-2-yl)pyridin-2-yl)-1H-imidazole-5-carboxamide]	3 to 10	> 10	< 3
Cc1cc(C(=O)N[C@@H](Cc2ccccc2)C(=O)C(=O)NC2CC2)n(-c2cccc3ncccc23)n1 [Compound 78, (S)—N-(4-(cyclopropylamino)-3,4-dioxo-1-phenylbutan-2-yl)-3-methyl-1-(quinolin-5-yl)-1H-pyrazole-5-carboxamide]	3 to 10	< 3	> 10
Cc1cc(C(=O)N[C@@H](Cc2ccccc2)C(=O)C(N)=O)nn1-c1nc(-c2ccccc2)cs1 [Compound 80, (S)—N-(4-amino-3,4-dioxo-1-phenylbutan-2-yl)-5-methyl-1-(4-phenylthiazol-2-yl)-1H-pyrazole-3-carboxamide]	< 3	3 to 10	3 to 10
Cc1cc(C(=O)N[C@@H](Cc2ccccc2)C(=O)C(=O)NC2CC2)n(-c2cnccn2)n1 [Compound 85, (S)—N-(4-(cyclopropylamino)-3,4-dioxo-1-phenylbutan-2-yl)-3-methyl-1-(pyrazin-2-yl)-1H-pyrazole-5-carboxamide]	< 3	< 3	< 3
